Measured values taken from EP0863156A1, “Peptides useful as somatostatin antagonists” (American Cyanamid Company, priority 1997, dated 1998).
Where two headings read alike, the source gives them in different places. Square brackets hold non-standard residues; d marks the D form. Peptide text beside a SMILES is read from it.

How the values were obtained:
SRIF receptors = target: T1, SRIF receptors (Rattus norvegicus, UniProt P30680); assay: Yeast bioassay for SRIF antagonist activity (zone of growth inhibition of LY364 cells growing in response to SRIF); format: cell-based; details: 10 µL of 5 mg/mL on filter disk, S-14 10 nM; for Yeast Assay (mm): Table III, diameter of zone of growth inhibition; for Inhibition Zone (mm): sample type 4th iteration, read after 3 days, compare only within same experiment
T1 construct: expressed in transfected cells; host or cells: Saccharomyces cerevisiae strain LY364
Procedure: Agar plates containing LY364 cells that are growing in the presence of added SRIF are the basis for a sensitive SRIF antagonist assay, whereby zones of growth inhibition result from the addition of SRIF antagonists to the surface of the agar plate (see L.A. Price, et al., Molecular and Cellular Biology, 15, 6188-6195, 1995, incorporated herein by reference).
In this assay, LY364 cells are grown overnight in 2 mL of synthetic complete(SC) medium (3.4 g/L YNB without amino acids and ammonium sulfate, 10 g/L ammonium sulfate and 1.4 g/L CSM-ura-trp) with glucose (2%) and without uracil and tryptophan. These cells are washed and cultured for 4 to 8 hours in 5 mL of SC medium with lactate (3%) and without uracil and tryptophan, and finally grown overnight in 5 mL of SC medium with galactose (2%) and without uracil and tryptophan. Molten (50° C) SC agar medium with galactose (2%) and without uracil, tryptophan and histidine is adjusted to pH 6.8 with KOH, mixed with 2 x 10^4 cells/mL and SRIF (S-14, 10 nM) and poured into square (20 x 20 cm) petri dishes. Sterile filter disks are placed on the surface of the agar, and saturated with 10 µL of water or DMSO containing 5 mg/mL test peptides. After three days, the plates display a uniform cloudy background of […] cells growing in response to the added SRIF. […] This zone is quantified by measuring its diameter (mm), which varies according to the potency of the SRIF antagonist. Those peptides or mixtures of peptides displaying the largest zones of inhibition are further characterized.
Values are compared among samples in the same experiment, as the degree of yeast growth varies somewhat from assay to assay. For the first five sample types, in which progressively less complex mixtures of peptides are found, this assay is the primary determining factor in choosing which samples form the basis of subsequent syntheses.
Plates are read after 3 days. Samples shown in Table I in bold type are chosen for further synthesis. In Table I, all amino acids are D-amino acids and dashes represent undefined amino acid residues.

SSTR2 = SSTR2 (Rattus norvegicus, UniProt P30680); assay: cAMP accumulation in forskolin-stimulated GH4C1/SSTR2 cells (SPA radioimmunoassay); format: cell-based; design: expressed in transfected cells; host or cells: GH4C1 rat pituitary tumor cells; details: for cAMP Assay Intrinsic activity / Emax: percent reversal of SSTR2 activation by SRIF or MK678, 0% = forskolin plus agonist, 100% = forskolin alone; for Emax: GH4-C1, read-out: cAMP Assay Intrinsic activity
[1] = system: serum growth hormone (GH) levels; assay: In vivo serum growth hormone levels in anaesthetized rats (radioimmunoassay); design: species or system Male Sprague-Dawley rats; details: GRF 1 µg alone at 30 min
Procedure: Evaluation in anaesthetized rats. Male Sprague-Dawley rats are anaesthetized with Sagatal and fitted so as to allow efficient intravenous treatment with control and test compounds as well as frequent blood sampling. Blood samples are tested for growth hormone (GH) levels by radioimmunoassay. Thirty minutes after the initiation of blood sampling, rats are given 5 µg, 25 µg or 50 µg of peptide 1.
Peptide 1 is tested in combination with growth hormone releasing factor (GRF), to investigate whether said peptide may be mimicking the action of GRF. Anaesthetized rats are given GRF (1 µg) alone and in combination with peptide 1 (50 µg). […]

[2] = dose response of SRIF agonist upon cAMP levels in forskolin stimulated GH4C1/SSTR2 cells, agonist alone

T1 sequence (P30680 whole entry): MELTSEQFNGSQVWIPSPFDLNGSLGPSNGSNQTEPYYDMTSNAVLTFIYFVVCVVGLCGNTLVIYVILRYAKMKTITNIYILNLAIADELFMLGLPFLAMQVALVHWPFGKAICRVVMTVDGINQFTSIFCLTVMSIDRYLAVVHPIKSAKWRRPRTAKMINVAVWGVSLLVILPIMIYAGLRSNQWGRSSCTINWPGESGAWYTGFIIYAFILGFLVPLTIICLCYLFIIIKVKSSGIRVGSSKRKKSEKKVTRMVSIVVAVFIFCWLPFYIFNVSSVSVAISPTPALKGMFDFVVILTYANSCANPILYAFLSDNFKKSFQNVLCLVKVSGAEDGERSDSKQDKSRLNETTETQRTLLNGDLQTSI
SSTR2, sequence (P30680 whole entry): as above

Compound	Yeast Assay (mm) (SRIF receptors)	cAMP Assay Intrinsic activity (SSTR2; test peptide 2 µM) [%]	Inhibition Zone (mm) (SRIF receptors)	other results
h-f-I-r-w-f [Peptide 15]	9 mm	9.71		
h-f-i-k-w-f [Peptide 27]	20.5 mm	71.2		
CC[C@@H](C)[C@@H](NC(=O)[C@@H](Cc1ccccc1)NC(=O)[C@@H](Cc1c[nH]cn1)NC(C)=O)C(=O)N[C@H](CCCNC(=N)N)C(=O)N[C@H](Cc1c[nH]c2ccccc12)C(=O)N[C@H](CCSC)C(N)=O [Seq Id No. 24] (Ac-[dH][dF][dI][dR][dW][dM]-NH2)			18	
h-f-v-r-w-f [Peptide 28]	20 mm	71.2		
w-h-i-r-w-f [Peptide 22]	none	27.4		
h-f-r-w-f [Peptide 9]	9 mm	6.36		
h-a-i-r-w-f [Peptide 3]	none	9.33		
CC[C@@H](C)[C@@H](NC(=O)[C@@H](Cc1ccccc1)NC(=O)[C@@H](Cc1c[nH]cn1)NC(C)=O)C(=O)N[C@H](CCCNC(=N)N)C(=O)NCC(=O)N[C@H](Cc1ccccc1)C(N)=O [Peptide 26, h-f-i-r-g-f] (Ac-[dH][dF][dI][dR]G[dF]-NH2)				Emax (SSTR2; test peptide 2 µM): 4.51%
CC[C@@H](C)[C@@H](NC(C)=O)C(=O)N[C@H](CCCNC(=N)N)C(=O)N[C@H](Cc1c[nH]c2ccccc12)C(=O)N[C@H](Cc1ccccc1)C(=O)N[C@H](Cc1c[nH]cn1)C(=O)N[C@H](Cc1ccccc1)C(N)=O [Peptide 33, i-r-w-f-h-f] (Ac-[dI][dR][dW][dF][dH][dF]-NH2; N-terminus and C-terminus assumed)				Emax (SSTR2; test peptide 100 µM): 11.5%
CC(C)[C@@H]1NC(=O)[C@H](CCCCN)NC(=O)[C@@H](Cc2c[nH]c3ccccc23)NC(=O)[C@H](Cc2ccc(O)cc2)NC(=O)[C@H](C)N(C)C(=O)[C@H](Cc2ccccc2)NC1=O [MK678, reference compound]				cAMP (SSTR2; Forskolin 1.25 µM + MK 678 10 nM, no Peptide 1 (forskolin alone 3.04; baseline 0.36)): 0.91 pM per 4 x 10^4 cells; EC50 (SSTR2; [2]): 0.143 nM; Maximum (SSTR2; [2]): 6.431; Minimum (SSTR2; [2]): 2.673
h-f-i-r-f [Peptide 11]	14 mm	12.1		
GRF: growth hormone releasing factor (GRF) [reference compound]				SGH ([1]; time 0 min (before dosing)): 11.2 ng/mL; SGH ([1]; time 15 min (before dosing)): 11.3 ng/mL; SGH ([1]; time 30 min (time of dose)): 8.4 ng/mL; SGH ([1]; time 35 min): 67.1 ng/mL; SGH ([1]; time 40 min): 103.5 ng/mL; SGH ([1]; time 45 min): 53.1 ng/mL
H-f-i-r-w-f [Peptide 13]	15 mm	26.2		
h-y-i-r-w-f [Peptide 20]	18 mm	56.5		
CC[C@@H](C)[C@@H](NC(=O)[C@@H](Cc1ccccc1)NC(=O)[C@@H](Cc1c[nH]cn1)NC(C)=O)C(=O)N[C@H](CCCNC(=N)N)C(=O)N[C@H](Cc1c[nH]c2ccccc12)C(=O)N[C@H](Cc1c[nH]c2ccccc12)C(N)=O [Seq Id No. 25] (Ac-[dH][dF][dI][dR][dW][dW]-NH2)			16	
CC[C@@H](C)[C@@H](NC(=O)[C@@H](CCCNC(=N)N)NC(=O)[C@@H](Cc1ccccc1)NC(=O)[C@@H](Cc1c[nH]cn1)NC(C)=O)C(=O)N[C@H](Cc1c[nH]c2ccccc12)C(=O)N[C@H](Cc1ccccc1)C(N)=O [Peptide 31, h-f-r-i-w-f] (Ac-[dH][dF][dR][dI][dW][dF]-NH2; N-terminus and C-terminus assumed)				Emax (SSTR2; test peptide 100 µM): 13%
CC[C@@H](C)[C@@H](NC(=O)[C@@H](CCCNC(=N)N)NC(=O)[C@@H](Cc1c[nH]c2ccccc12)NC(=O)[C@@H](Cc1ccccc1)NC(=O)[C@@H](Cc1c[nH]cn1)NC(C)=O)C(=O)N[C@H](Cc1ccccc1)C(N)=O [Peptide 30, h-f-w-r-i-f] (Ac-[dH][dF][dW][dR][dI][dF]-NH2; N-terminus and C-terminus assumed)				Emax (SSTR2; test peptide 100 µM): 12.9%
CC[C@@H](C)[C@@H](NC(=O)[C@@H](Cc1ccccc1)NC(=O)[C@@H](Cc1c[nH]cn1)NC(C)=O)C(=O)N[C@H](CCCNC(=N)N)C(=O)N[C@H](Cc1c[nH]c2ccccc12)C(=O)N[C@H](CCC(N)=O)C(N)=O [Seq Id No. 26] (Ac-[dH][dF][dI][dR][dW][dQ]-NH2)			16	
CC[C@@H](C)[C@@H](NC(=O)[C@@H](Cc1ccccc1)NC(=O)[C@@H](Cc1c[nH]cn1)NC(C)=O)C(=O)N[C@H](CCCNC(=N)N)C(=O)N[C@H](Cc1c[nH]c2ccccc12)C(=O)N[C@H](CC(C)C)C(N)=O [Seq Id No. 18] (Ac-[dH][dF][dI][dR][dW][dL]-NH2)			15	
CC[C@@H](C)[C@@H](NC(=O)[C@@H](Cc1ccccc1)NC(=O)[C@@H](Cc1c[nH]cn1)NC(C)=O)C(=O)N[C@H](CCCNC(=N)N)C(=O)N[C@H](Cc1c[nH]c2ccccc12)C(=O)NCC(N)=O [His Phe Ile Arg Trp Gly] (Ac-[dH][dF][dI][dR][dW]G-NH2)			13	
CC[C@@H](C)[C@@H](NC(=O)[C@@H](Cc1c[nH]c2ccccc12)NC(=O)[C@@H](CCCNC(=N)N)NC(=O)[C@H](NC(=O)[C@@H](Cc1ccccc1)NC(=O)[C@@H](Cc1c[nH]cn1)NC(C)=O)[C@H](C)CC)C(N)=O [Seq Id No. 21] (Ac-[dH][dF][dI][dR][dW][dI]-NH2)			16	
CC[C@@H](C)[C@@H](NC(=O)[C@@H](Cc1ccccc1)NC(=O)[C@@H](Cc1c[nH]cn1)NC(C)=O)C(=O)N[C@H](CCCNC(=N)N)C(=O)N[C@H](Cc1c[nH]c2ccccc12)C(=O)N[C@H](C)C(N)=O [Seq Id No. 22] (Ac-[dH][dF][dI][dR][dW][dA]-NH2)			15	
CC[C@@H](C)[C@@H](NC(=O)[C@@H](Cc1ccccc1)NC(=O)[C@@H](Cc1c[nH]cn1)NC(C)=O)C(=O)N[C@H](CCCNC(=N)N)C(=O)N[C@H](Cc1c[nH]c2ccccc12)C(=O)N[C@H](Cc1ccc(O)cc1)C(N)=O [Seq Id No. 20] (Ac-[dH][dF][dI][dR][dW][dY]-NH2)			16	
CC[C@@H](C)[C@H]1NC(=O)[C@@H](Cc2ccccc2)NC(=O)[C@@H](Cc2c[nH]cn2)NC(=O)[C@@H](Cc2ccccc2)NC(=O)[C@@H](Cc2c[nH]c3ccccc23)NC(=O)[C@@H](CCCNC(=N)N)NC1=O [Peptide 35, h-f-i-r-w-f] (cyclo([dH][dF][dI][dR][dW][dF]))				Emax (SSTR2; test peptide 100 µM): 122%
CC[C@@H](C)[C@@H](NC(=O)[C@@H](Cc1ccccc1)NC(=O)[C@@H](Cc1c[nH]cn1)NC(C)=O)C(=O)N[C@H](CCCNC(=N)N)C(=O)N[C@H](Cc1c[nH]c2ccccc12)C(=O)N[C@@H](C(N)=O)[C@H](C)O [Seq Id No. 19] (Ac-[dH][dF][dI][dR][dW][dT]-NH2)			14	
CC[C@@H](C)[C@@H](NC(=O)[C@@H](Cc1ccccc1)NC(=O)[C@@H](Cc1c[nH]cn1)NC(C)=O)C(=O)N[C@H](CCCNC(=N)N)C(=O)N[C@H](Cc1c[nH]c2ccccc12)C(=O)N[C@H](CC(N)=O)C(N)=O [Seq Id No. 23] (Ac-[dH][dF][dI][dR][dW][dN]-NH2)			15	
CC[C@@H](C)[C@@H](NC(=O)[C@@H](Cc1c[nH]c2ccccc12)NC(=O)[C@@H](Cc1c[nH]cn1)NC(C)=O)C(=O)N[C@H](CCCNC(=N)N)C(=O)N[C@H](Cc1ccccc1)C(=O)N[C@H](Cc1ccccc1)C(N)=O [Peptide 29, h-w-i-r-f-f] (Ac-[dH][dW][dI][dR][dF][dF]-NH2; N-terminus and C-terminus assumed)				Emax (SSTR2; test peptide 100 µM): 21.3%
